Experimental data as given in EP0312346B1, “E. coli sequence specific acid protease” (GENENCOR INTERNATIONAL, INC., priority 1987, dated 1989).

System: acid protease of E.coli
Assay: Inhibition of the protease cleaving activity (lysis at pH 5, 26 Kd CCP fragment on Western blot)
Format: biochemical
Source text: E.coli expressing CCP was lysed at pH 5 in the presence of increasing concentrations of poly-L-lysine or poly-L-arginine. Any protease activity was evidenced by the appearance of the 26 Kd fragment on Western blot. […] No 26 Kd fragment appeared; DTT, PMSF and EDTA had no inhibitory effect on the lysine-lysine lysine-arginine, arginine-lysine or arginine-arginine cleaving activity of the protease.

[1] = 1 mM inhibitor, E.coli expressing CCP lysed at pH 5, no 26 Kd fragment appeared on Western blot

Substance | inhibition of the protease activity [1] | inhibition of the protease activity (no concentration stated)
poly-L-lysine | completely inhibited | inhibited
poly-L-arginine | completely inhibited | inhibited
